Legend:
[1] = molecular target: Ephrin type-B receptor 6 (Homo sapiens) (UniProt O15197); settings: Compound concentration 1000.0 nM
[2] = molecular target: Mast/stem cell growth factor receptor Kit (Homo sapiens) (UniProt P10721); settings: Compound concentration 1000.0 nM
[3] = system: Epidermal growth factor receptor (Homo sapiens), P00533 [UNDEFINED MUTATION]; settings: Compound concentration 1000.0 nM
[4] = molecular target: Cyclin-dependent kinase 9 (Homo sapiens) (UniProt P50750); settings: Compound concentration 1000.0 nM
[5] = system: Proto-oncogene tyrosine-protein kinase receptor Ret (Homo sapiens), P07949 [V804L]; settings: Compound concentration 1000.0 nM
[6] = molecular target: Mitogen-activated protein kinase 9 (Homo sapiens) (UniProt P45984); settings: Compound concentration 1000.0 nM
[7] = molecular target: 5-hydroxytryptamine receptor 1E (Homo sapiens) (UniProt P28566); settings: Compound concentration 10.0 uM
[8] = molecular target: Cyclin-dependent kinase 18 (Homo sapiens) (UniProt Q07002); settings: Compound concentration 1000.0 nM
[9] = molecular target: Serine/threonine-protein kinase PAK 6 (Homo sapiens) (UniProt Q9NQU5); settings: Compound concentration 1000.0 nM
[10] = molecular target: Testis-specific serine/threonine-protein kinase 1 (Homo sapiens) (UniProt Q9BXA7); settings: Compound concentration 1000.0 nM
[11] = molecular target: Dual specificity tyrosine-phosphorylation-regulated kinase 1B (Homo sapiens) (UniProt Q9Y463); settings: Compound concentration 1000.0 nM
[12] = molecular target: Bone morphogenetic protein receptor type-1A (Homo sapiens) (UniProt P36894); settings: Compound concentration 1000.0 nM
[13] = molecular target: Serine/threonine-protein kinase DCLK1 (Homo sapiens) (UniProt O15075); settings: Compound concentration 1000.0 nM
[14] = system: Mast/stem cell growth factor receptor Kit (Homo sapiens), P10721 [V559D]; settings: Compound concentration 1000.0 nM
[15] = system: Tyrosine-protein kinase ABL1 (Homo sapiens), P00519 [H396P]; settings: Compound concentration 1000.0 nM
[16] = molecular target: Ephrin type-A receptor 4 (Homo sapiens) (UniProt P54764); settings: Compound concentration 1000.0 nM
[17] = molecular target: Tyrosine-protein kinase TXK (Homo sapiens) (UniProt P42681); settings: Compound concentration 1000.0 nM
[18] = molecular target: RAC-gamma serine/threonine-protein kinase (Homo sapiens) (UniProt Q9Y243); settings: Compound concentration 1000.0 nM
[19] = molecular target: Tyrosine-protein kinase Tec (Homo sapiens) (UniProt P42680); settings: Compound concentration 1000.0 nM
[20] = molecular target: Casein kinase II subunit alpha (Homo sapiens) (UniProt P68400); settings: Compound concentration 1000.0 nM
[21] = molecular target: Fibroblast growth factor receptor 4 (Homo sapiens) (UniProt P22455); settings: Compound concentration 1000.0 nM
[22] = system: Mast/stem cell growth factor receptor Kit (Homo sapiens), P10721 [A829P]; settings: Compound concentration 1000.0 nM
[23] = molecular target: Citron Rho-interacting kinase (Homo sapiens) (UniProt O14578); settings: Compound concentration 1000.0 nM
[24] = molecular target: Receptor-interacting serine/threonine-protein kinase 1 (Homo sapiens) (UniProt Q13546); settings: Compound concentration 1000.0 nM
[25] = molecular target: Serine/threonine-protein kinase DCLK3 (Homo sapiens) (UniProt Q9C098); settings: Compound concentration 1000.0 nM
[26] = molecular target: Casein kinase I isoform epsilon (Homo sapiens) (UniProt P49674); settings: Compound concentration 1000.0 nM
[27] = molecular target: Tyrosine-protein kinase JAK1 (Homo sapiens) (UniProt P23458); settings: Compound concentration 1000.0 nM
[28] = molecular target: Serine/threonine-protein kinase SBK1 (Homo sapiens) (UniProt Q52WX2); settings: Compound concentration 1000.0 nM
[29] = molecular target: NUAK family SNF1-like kinase 1 (Homo sapiens) (UniProt O60285); settings: Compound concentration 1000.0 nM
[30] = system: Receptor-type tyrosine-protein kinase FLT3 (Homo sapiens), P36888 [D835V]; settings: Compound concentration 1000.0 nM
[31] = molecular target: Mitogen-activated protein kinase kinase kinase 6 (Homo sapiens) (UniProt O95382); settings: Compound concentration 1000.0 nM
[32] = molecular target: Serine/threonine-protein kinase 36 (Homo sapiens) (UniProt Q9NRP7); settings: Compound concentration 1000.0 nM
[33] = molecular target: Calcium/calmodulin-dependent protein kinase type IV (Homo sapiens) (UniProt Q16566); settings: Compound concentration 1000.0 nM
[34] = molecular target: Serine/threonine-protein kinase 16 (Homo sapiens) (UniProt O75716); settings: Compound concentration 1000.0 nM
[35] = molecular target: Phosphatidylinositol 4,5-bisphosphate 3-kinase catalytic subunit alpha isoform (Homo sapiens) (UniProt P42336); settings: Compound concentration 1000.0 nM
[36] = molecular target: Ribosomal protein S6 kinase alpha-6 (Homo sapiens) (UniProt Q9UK32); settings: Compound concentration 1000.0 nM
[37] = molecular target: Ephrin type-A receptor 8 (Homo sapiens) (UniProt P29322); settings: Compound concentration 1000.0 nM
[38] = molecular target: Eukaryotic translation initiation factor 2-alpha kinase 1 (Homo sapiens) (UniProt Q9BQI3); settings: Compound concentration 1000.0 nM
[39] = molecular target: D(3) dopamine receptor (Homo sapiens) (UniProt P35462); settings: Compound concentration 10.0 uM
[40] = molecular target: Phosphatidylinositol 4-phosphate 5-kinase type-1 gamma (Homo sapiens) (UniProt O60331); settings: Compound concentration 1000.0 nM
[41] = molecular target: Phosphatidylinositol 4-phosphate 3-kinase C2 domain-containing subunit beta (Homo sapiens) (UniProt O00750); settings: Compound concentration 1000.0 nM
[42] = molecular target: Cyclin-dependent kinase 15 (Homo sapiens) (UniProt Q96Q40); settings: Compound concentration 1000.0 nM
[43] = molecular target: 1-phosphatidylinositol 3-phosphate 5-kinase (Homo sapiens) (UniProt Q9Y2I7); settings: Compound concentration 1000.0 nM
[44] = molecular target: Myosin light chain kinase family member 4 (Homo sapiens) (UniProt Q86YV6); settings: Compound concentration 1000.0 nM
[45] = system: Phosphatidylinositol 4,5-bisphosphate 3-kinase catalytic subunit alpha isoform (Homo sapiens), P42336 [E545A]; settings: Compound concentration 1000.0 nM

Sequence of Mast/stem cell growth factor receptor Kit (Homo sapiens), P10721 [A829P] (P10721 whole entry A829P): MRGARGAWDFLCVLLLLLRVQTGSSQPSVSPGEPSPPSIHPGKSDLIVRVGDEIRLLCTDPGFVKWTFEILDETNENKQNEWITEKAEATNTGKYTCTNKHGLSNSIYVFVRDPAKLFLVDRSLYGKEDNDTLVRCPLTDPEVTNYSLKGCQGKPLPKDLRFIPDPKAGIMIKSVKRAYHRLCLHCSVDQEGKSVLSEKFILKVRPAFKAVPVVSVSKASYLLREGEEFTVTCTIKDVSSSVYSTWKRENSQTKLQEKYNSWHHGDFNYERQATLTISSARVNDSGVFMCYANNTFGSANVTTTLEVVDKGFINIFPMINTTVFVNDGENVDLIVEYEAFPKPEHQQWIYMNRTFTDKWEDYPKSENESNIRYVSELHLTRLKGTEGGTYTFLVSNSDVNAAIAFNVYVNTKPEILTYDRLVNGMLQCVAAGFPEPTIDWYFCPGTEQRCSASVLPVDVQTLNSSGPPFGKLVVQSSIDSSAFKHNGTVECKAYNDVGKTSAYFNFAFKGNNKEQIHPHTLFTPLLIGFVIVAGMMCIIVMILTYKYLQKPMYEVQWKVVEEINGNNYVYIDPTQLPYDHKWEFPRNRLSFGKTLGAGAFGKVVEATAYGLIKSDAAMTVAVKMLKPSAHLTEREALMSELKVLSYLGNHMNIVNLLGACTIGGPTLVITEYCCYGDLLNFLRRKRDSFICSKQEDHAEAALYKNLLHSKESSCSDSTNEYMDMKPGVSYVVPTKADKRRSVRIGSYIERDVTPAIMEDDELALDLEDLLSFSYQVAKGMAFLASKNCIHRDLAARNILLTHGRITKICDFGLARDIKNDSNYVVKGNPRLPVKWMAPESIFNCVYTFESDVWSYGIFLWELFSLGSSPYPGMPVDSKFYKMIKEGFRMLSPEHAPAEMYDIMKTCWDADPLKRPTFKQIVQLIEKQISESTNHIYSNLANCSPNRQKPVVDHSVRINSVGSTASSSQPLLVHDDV
Sequence of Ribosomal protein S6 kinase alpha-6 (Homo sapiens) (Q9UK32 whole entry): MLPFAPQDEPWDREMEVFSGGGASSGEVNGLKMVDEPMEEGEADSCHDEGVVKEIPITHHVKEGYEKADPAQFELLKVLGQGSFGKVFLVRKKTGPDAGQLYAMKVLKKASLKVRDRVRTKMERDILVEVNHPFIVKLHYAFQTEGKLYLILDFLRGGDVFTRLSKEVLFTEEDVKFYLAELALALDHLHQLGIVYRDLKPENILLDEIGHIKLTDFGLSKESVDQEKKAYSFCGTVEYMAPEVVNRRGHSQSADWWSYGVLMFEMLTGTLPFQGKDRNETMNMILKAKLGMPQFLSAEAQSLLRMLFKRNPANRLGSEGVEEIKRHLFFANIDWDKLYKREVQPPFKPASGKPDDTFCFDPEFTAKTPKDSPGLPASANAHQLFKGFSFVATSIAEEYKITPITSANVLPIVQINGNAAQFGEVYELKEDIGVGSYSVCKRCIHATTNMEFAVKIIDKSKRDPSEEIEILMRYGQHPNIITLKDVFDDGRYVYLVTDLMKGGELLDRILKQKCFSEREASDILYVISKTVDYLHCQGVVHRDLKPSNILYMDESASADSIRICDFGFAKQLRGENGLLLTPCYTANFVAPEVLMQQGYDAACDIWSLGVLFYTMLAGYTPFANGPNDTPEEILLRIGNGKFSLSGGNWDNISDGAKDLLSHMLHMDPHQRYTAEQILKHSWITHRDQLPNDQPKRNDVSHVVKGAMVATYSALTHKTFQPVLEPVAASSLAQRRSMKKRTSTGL
Sequence of Serine/threonine-protein kinase SBK1 (Homo sapiens) (Q52WX2 whole entry): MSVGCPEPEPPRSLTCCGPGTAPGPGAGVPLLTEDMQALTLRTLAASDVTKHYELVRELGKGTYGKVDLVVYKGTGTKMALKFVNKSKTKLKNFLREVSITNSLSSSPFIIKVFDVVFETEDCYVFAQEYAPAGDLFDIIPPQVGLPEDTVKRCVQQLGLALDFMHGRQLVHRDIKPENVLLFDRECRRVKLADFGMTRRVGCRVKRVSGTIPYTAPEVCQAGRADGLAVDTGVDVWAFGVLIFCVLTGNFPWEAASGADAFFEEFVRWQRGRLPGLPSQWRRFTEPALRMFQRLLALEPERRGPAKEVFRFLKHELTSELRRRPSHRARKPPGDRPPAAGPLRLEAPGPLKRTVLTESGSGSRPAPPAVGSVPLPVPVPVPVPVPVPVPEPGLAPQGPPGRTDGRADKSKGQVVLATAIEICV
Sequence of Mitogen-activated protein kinase kinase kinase 6 (Homo sapiens) (O95382 whole entry): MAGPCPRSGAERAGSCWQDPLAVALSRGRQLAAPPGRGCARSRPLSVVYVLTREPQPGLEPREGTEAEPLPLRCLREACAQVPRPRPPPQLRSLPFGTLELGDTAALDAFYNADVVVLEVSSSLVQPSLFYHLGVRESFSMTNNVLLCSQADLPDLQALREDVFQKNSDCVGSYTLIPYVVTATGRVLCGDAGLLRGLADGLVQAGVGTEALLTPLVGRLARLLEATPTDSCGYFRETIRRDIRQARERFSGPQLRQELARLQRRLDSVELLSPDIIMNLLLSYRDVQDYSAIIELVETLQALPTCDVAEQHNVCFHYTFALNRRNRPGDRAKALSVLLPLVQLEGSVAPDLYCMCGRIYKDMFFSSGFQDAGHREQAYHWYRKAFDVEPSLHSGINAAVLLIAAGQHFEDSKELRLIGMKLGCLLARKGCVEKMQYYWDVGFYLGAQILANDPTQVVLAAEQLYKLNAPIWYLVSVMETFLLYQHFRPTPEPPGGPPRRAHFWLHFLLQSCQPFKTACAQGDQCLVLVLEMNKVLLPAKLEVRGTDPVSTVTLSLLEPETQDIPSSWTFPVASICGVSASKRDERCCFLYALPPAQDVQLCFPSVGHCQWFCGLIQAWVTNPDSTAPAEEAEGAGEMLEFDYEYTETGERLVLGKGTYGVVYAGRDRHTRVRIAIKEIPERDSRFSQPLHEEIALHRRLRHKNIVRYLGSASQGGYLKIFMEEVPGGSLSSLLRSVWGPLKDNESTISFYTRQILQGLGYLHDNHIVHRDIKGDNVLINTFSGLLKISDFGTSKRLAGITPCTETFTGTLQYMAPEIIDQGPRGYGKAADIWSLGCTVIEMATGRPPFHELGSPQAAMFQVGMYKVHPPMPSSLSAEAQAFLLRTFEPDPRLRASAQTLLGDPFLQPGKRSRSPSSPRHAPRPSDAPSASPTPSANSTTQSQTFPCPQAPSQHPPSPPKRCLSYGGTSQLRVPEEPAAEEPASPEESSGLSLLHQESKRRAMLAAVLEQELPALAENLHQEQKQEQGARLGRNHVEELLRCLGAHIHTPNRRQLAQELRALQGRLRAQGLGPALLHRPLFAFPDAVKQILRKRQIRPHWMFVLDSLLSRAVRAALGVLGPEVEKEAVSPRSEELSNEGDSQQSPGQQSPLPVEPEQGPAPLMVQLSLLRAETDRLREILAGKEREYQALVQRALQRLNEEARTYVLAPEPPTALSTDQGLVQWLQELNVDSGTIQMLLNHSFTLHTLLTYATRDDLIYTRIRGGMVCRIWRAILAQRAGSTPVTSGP
Sequence of Casein kinase II subunit alpha (Homo sapiens) (P68400 whole entry, looked up): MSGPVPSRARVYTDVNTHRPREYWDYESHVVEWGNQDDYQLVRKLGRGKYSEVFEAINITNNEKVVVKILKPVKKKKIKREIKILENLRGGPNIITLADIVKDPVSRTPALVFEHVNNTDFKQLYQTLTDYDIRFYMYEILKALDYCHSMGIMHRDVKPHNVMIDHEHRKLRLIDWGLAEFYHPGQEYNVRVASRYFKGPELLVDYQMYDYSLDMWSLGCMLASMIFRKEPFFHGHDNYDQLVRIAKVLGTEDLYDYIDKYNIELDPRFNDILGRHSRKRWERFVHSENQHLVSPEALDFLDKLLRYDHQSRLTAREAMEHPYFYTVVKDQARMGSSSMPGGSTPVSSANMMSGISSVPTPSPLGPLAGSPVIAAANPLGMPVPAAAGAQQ
Sequence of Casein kinase I isoform epsilon (Homo sapiens) (P49674 whole entry, looked up, canonical isoform): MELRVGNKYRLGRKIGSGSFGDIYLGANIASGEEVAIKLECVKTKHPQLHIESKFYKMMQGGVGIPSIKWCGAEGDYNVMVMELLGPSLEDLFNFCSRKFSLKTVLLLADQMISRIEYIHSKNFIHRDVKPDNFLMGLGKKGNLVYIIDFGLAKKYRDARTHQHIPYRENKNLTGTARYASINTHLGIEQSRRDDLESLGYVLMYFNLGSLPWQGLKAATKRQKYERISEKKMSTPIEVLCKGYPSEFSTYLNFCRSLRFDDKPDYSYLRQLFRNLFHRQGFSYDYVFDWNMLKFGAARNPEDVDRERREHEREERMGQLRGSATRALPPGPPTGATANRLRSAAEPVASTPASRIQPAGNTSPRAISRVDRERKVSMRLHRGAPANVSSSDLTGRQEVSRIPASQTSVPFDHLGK
Sequence of 5-hydroxytryptamine receptor 1E (Homo sapiens) (P28566 whole entry): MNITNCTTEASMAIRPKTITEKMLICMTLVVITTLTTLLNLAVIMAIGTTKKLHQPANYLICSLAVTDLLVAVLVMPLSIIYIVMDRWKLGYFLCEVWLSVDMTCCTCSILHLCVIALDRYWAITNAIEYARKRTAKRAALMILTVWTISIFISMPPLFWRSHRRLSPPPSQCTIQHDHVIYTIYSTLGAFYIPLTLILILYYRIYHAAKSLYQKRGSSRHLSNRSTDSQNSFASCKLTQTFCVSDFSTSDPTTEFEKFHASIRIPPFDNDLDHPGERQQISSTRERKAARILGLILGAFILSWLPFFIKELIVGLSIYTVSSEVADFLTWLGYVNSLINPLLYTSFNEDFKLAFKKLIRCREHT
Sequence of Cyclin-dependent kinase 9 (Homo sapiens) (P50750 whole entry): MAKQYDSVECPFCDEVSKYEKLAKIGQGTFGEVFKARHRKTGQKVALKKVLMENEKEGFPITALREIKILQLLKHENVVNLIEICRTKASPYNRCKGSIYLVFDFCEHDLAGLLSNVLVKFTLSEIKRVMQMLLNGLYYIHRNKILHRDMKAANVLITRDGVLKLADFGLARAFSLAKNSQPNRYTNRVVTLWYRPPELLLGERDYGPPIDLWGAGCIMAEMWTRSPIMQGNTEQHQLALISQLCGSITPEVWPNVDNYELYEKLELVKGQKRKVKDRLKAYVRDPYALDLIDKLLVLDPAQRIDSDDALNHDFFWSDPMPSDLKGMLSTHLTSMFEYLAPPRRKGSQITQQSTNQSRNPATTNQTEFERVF

Q: With `CN([C@@H]1CCc2c(CC(=O)O)c3ccccc3n2C1)S(=O)(=O)c1ccc(F)cc1` [MK-7246] as the molecule, how does the residual activity [1] read?
A: The residual activity was 83%.

Q: What about the residual activity [2] of the same molecule?
A: Its residual activity is 96%.

Q: What about the residual activity [3] of the same molecule?
A: Its residual activity is 95%.

Q: And the residual activity [4]?
A: The residual activity was 100%.

Q: And the residual activity [5]?
A: The residual activity was 99%.

Q: What about the residual activity [6] of the same molecule?
A: The residual activity was 98%.

Q: What about the inhibition [7] of the same molecule?
A: Its inhibition is 35.8%.

Q: What about the residual activity [8] of the same molecule?
A: The residual activity was 100%.

Q: What about the residual activity [9] of the same molecule?
A: Its residual activity is 100%.

Q: What about the residual activity [10] of the same molecule?
A: The residual activity was 100%.

Q: What about the residual activity [11] of the same molecule?
A: The residual activity was 44%.

Q: What about the residual activity [12] of the same molecule?
A: Its residual activity is 100%.

Q: What about the residual activity [13] of the same molecule?
A: The residual activity was 82%.

Q: What about the residual activity [14] of the same molecule?
A: The residual activity was 100%.

Q: What about the residual activity [15] of the same molecule?
A: The residual activity was 100%.

Q: What about the residual activity [16] of the same molecule?
A: Its residual activity is 87%.

Q: What about the residual activity [17] of the same molecule?
A: Its residual activity is 93%.

Q: And the residual activity [18]?
A: The residual activity was 100%.

Q: What about the residual activity [19] of the same molecule?
A: Its residual activity is 100%.

Q: What about the residual activity [20] of the same molecule?
A: The residual activity was 82%.

Q: And the residual activity [21]?
A: Its residual activity is 91%.

Q: What about the residual activity [22] of the same molecule?
A: The residual activity was 100%.

Q: What about the residual activity [23] of the same molecule?
A: The residual activity was 100%.

Q: And the residual activity [24]?
A: Its residual activity is 100%.

Q: And the residual activity [25]?
A: Its residual activity is 99%.

Q: What about the residual activity [26] of the same molecule?
A: Its residual activity is 90%.

Q: And the residual activity [27]?
A: The residual activity was 100%.

Q: And the residual activity [28]?
A: The residual activity was 100%.

Q: What about the residual activity [29] of the same molecule?
A: Its residual activity is 100%.

Q: What about the residual activity [30] of the same molecule?
A: Its residual activity is 94%.

Q: And the residual activity [31]?
A: Its residual activity is 80%.

Q: What about the residual activity [32] of the same molecule?
A: The residual activity was 100%.

Q: And the residual activity [33]?
A: Its residual activity is 85%.

Q: What about the residual activity [34] of the same molecule?
A: Its residual activity is 99%.

Q: And the residual activity [35]?
A: The residual activity was 100%.

Q: And the residual activity [36]?
A: Its residual activity is 100%.

Q: What about the residual activity [37] of the same molecule?
A: The residual activity was 100%.

Q: And the residual activity [38]?
A: The residual activity was 98%.

Q: What about the inhibition [39] of the same molecule?
A: Its inhibition is -4.25%.

Q: And the residual activity [40]?
A: Its residual activity is 100%.

Q: And the residual activity [41]?
A: Its residual activity is 94%.

Q: What about the residual activity [42] of the same molecule?
A: Its residual activity is 100%.

Q: What about the residual activity [43] of the same molecule?
A: The residual activity was 100%.

Q: What about the residual activity [44] of the same molecule?
A: Its residual activity is 100%.

Q: And the residual activity [45]?
A: Its residual activity is 100%.

Q: Which results are given for `CN([C@@H]1CCc2c(CC(=O)O)c3cc(S(C)(=O)=O)ccc3n2C1)S(=O)(=O)c1ccc(F)cc1`?
A: residual activity [1]: 82%; residual activity [2]: 89%; residual activity [3]: 80%; residual activity [4]: 100%; residual activity [5]: 100%; residual activity [6]: 100%; inhibition [7]: 5.5%; residual activity [8]: 100%; residual activity [9]: 100%; residual activity [10]: 100%; residual activity [11]: 36%; residual activity [12]: 85%; residual activity [13]: 79%; residual activity [14]: 92%; residual activity [15]: 78%; residual activity [16]: 93%; residual activity [17]: 74%; residual activity [18]: 83%; residual activity [19]: 100%; residual activity [20]: 91%; residual activity [21]: 99%; residual activity [22]: 100%; residual activity [23]: 96%; residual activity [24]: 93%; residual activity [25]: 71%; residual activity [26]: 96%; residual activity [27]: 100%; residual activity [28]: 100%; residual activity [29]: 100%; residual activity [30]: 99%; residual activity [31]: 89%; residual activity [32]: 98%; residual activity [33]: 87%; residual activity [34]: 95%; residual activity [35]: 100%; residual activity [36]: 71%; residual activity [37]: 98%; residual activity [38]: 90%; inhibition [39]: -5.72%; residual activity [40]: 100%; residual activity [41]: 100%; residual activity [42]: 84%; residual activity [43]: 97%; residual activity [44]: 100%; residual activity [45]: 96%
